# Source: patent US20150258059A1, “ANTIMICROBIAL AND RADIOPROTECTIVE COMPOUNDS” (BioDiem, Ltd, priority 2001, published 2015)
# Columns and labels:
# Trichophyton rubrum = assay: NCCLS broth macro-dilution MIC/MFC (RPMI); type: cell-based; conditions: Table 10, 7 day, 30° C.
# Epidermophyton floccosum = assay: NCCLS broth macro-dilution MIC/MFC (RPMI); type: cell-based; conditions: Table 10, 7 day, 30° C.
# Microsporum gypseum = assay: NCCLS broth macro-dilution MIC/MFC (RPMI); type: cell-based; conditions: Table 10, 7 day, 30° C.
# Candida albicans = assay: NCCLS broth macro-dilution MIC/MFC (RPMI); type: cell-based; conditions: Table 10, 4 day, 30° C.
# Rhodotorula rubra = assay: NCCLS broth macro-dilution MIC/MFC (RPMI); type: cell-based; conditions: Table 10, 4 day, 30° C.
# Fusarium graminearum = assay: microbe, parasite or virus in culture; type: cell-based
# [1] = tested on: C. guillermondii RMIT 176; assay: M38-P microdilution MIC/MFC; type: cell-based; conditions: Table 16, 24 h, 35° C.
# C. krusei RMIT 177 = assay: M38-P microdilution MIC/MFC; type: cell-based; conditions: 35° C.
# C. parapsilosis RMIT 178 = assay: M38-P microdilution MIC/MFC; type: cell-based; conditions: 35° C.
# C. tropicalis RMIT 181 = assay: M38-P microdilution MIC/MFC; type: cell-based; conditions: 35° C.
# C. glabrate RMIT 157 = assay: M38-P microdilution MIC/MFC; type: cell-based; conditions: Table 16, 24 h, 35° C.
# Cryptococcus neoformans = assay: M38-P microdilution MIC/MFC; type: cell-based; conditions: Cryptococcus neoformans, Table 16, 24 h, 35° C., read-out: MIC
# [2] = in vivo; cited from earlier work
compound,measurement,setting,value
Clc1ccc(COC(Cn2ccnc2)c2ccc(Cl)cc2Cl)c(Cl)c1 (stereo not drawn) [Miconazole],MMC,Trichophyton rubrum,64 µg/mL
same,MIC,"Trichophyton rubrum; Trichophyton rubrum, 168 h",1 µg/mL
same,MIC,"Epidermophyton floccosum; Epidermophyton floccosum, 168 h",0.25 µg/mL
same,MMC,Epidermophyton floccosum,0.25 µg/mL
same,MIC,"Microsporum gypseum; Nannizzia gypsea, 168 h",4 µg/mL
same,MMC,Microsporum gypseum,64 µg/mL
same,MIC,"Candida albicans; Candida albicans, 96 h",4 µg/mL
same,MMC,Candida albicans,8 µg/mL
same,MIC,"Rhodotorula rubra; Rhodotorula, 96 h",8 µg/mL
same,MMC,Rhodotorula rubra,32 µg/mL
same,MIC,"Fusarium graminearum; Fusarium graminearum, 168 h",32 µg/mL
same,MMC,"Fusarium graminearum; Table 10, 7 day, 30° C.",32 µg/mL
same,MMC,[1],1 µg/mL
same,MIC,[1]; read-out: MIC,1 µg/mL
same,MIC,"C. krusei RMIT 177; Pichia kudriavzevii, RMIT177, Table 16, 24 h, read-out: MIC",2 µg/mL
same,MMC,"C. krusei RMIT 177; Table 16, 24 h",2 µg/mL
same,MIC,"C. parapsilosis RMIT 178; Lodderomyces parapsilosis, RMIT178, Table 16, 24 h, read-out: MIC",0.5 µg/mL
same,MMC,"C. parapsilosis RMIT 178; Table 16, 24 h",0.5 µg/mL
same,MIC,"C. tropicalis RMIT 181; Candida tropicalis, RMIT181, Table 16, 24 h, read-out: MIC",1 µg/mL
same,MMC,"C. tropicalis RMIT 181; Table 16, 24 h",2 µg/mL
same,MMC,C. glabrate RMIT 157,0.5 µg/mL
same,MIC,C. glabrate RMIT 157; read-out: MIC,0.25 µg/mL
same,MIC,Cryptococcus neoformans,4 µg/mL
NCCSSCCN [cystamine],index of protection,[2],≤ 1.45
same,side effect,[2],causes diarrhea
"NCCS [mercamine, β-mercaptoethylamine]",duration of radiation protecting activity,[2],15 to 30 min
same,period of action,[2],0.5 to 1 h
